Ends that are not written are not given here.
Key:
[1] = system: SD rats with bleomycin-induced pulmonary fibrosis; assay: Bleomycin-induced pulmonary fibrosis animal model; type: in vivo; conditions: for Survival rate (%): bleomycin 5 mg/kg intratracheal, polypeptides 10 mg/kg subcutaneous twice a day for 14 days, positive drug Nintedanib intragastric once a day, model group 57.1%; for content of HYP in lung tissues, difference from model group / content of TGF-β1 in serum, difference from model group: polypeptides 10 mg/kg s.c. twice a day, Nintedanib 25 mg/kg intragastric once a day, 14 days
Description: Source and strain: clean SD rats, provided by Comparative Medicine Center of Yangzhou University (laboratory animal production license: SCXK (Su) 2012-0004); Certification of Using of Laboratory Animal: SYXK (Su) 2012-0035).
SD rats were anesthetized by intraperitoneal injection of 1 mL/100 g 4% chloral hydrate. After anesthesia, the rats were fixed and their necks were disinfected by using cotton with 75% alcohol. The skin of the rat neck was longitudinally cut with scissors, and the fascia and muscle were longitudinally bluntly torn with tweezers to expose the trachea. A syringe was inserted into the trachea to inject 5 mg/kg bleomycin, while a blank group was injected with an equal amount of normal saline. Then a rat plate was quickly erected and rotated, the rats' breathing was observed, the neck wound was sterilized after rotation and was sewn, and an amoxicillin anti-inflammatory drug was sprinkled on the suture. After the operation, the rats were put back into a dry and clean cage for resting, waiting was performed for awakening. The rats were awakened after about 1-2 hours, and then fed normally. On the 7th day after modeling, modeling group animals randomly fell into a model group, a Nintedanib positive drug group, polypeptide I, II, III and IV dosage groups, and a normal control group, and the groups were administered separately for an administration cycle of 14 days. Living situations of rats were observed every day and their weights were weighed. After administration for 14 days, the eyeballs were removed and blood was taken, the rats were dissected, and lungs were taken. The content of TGF-β1 in serum and the content of HYP in lung tissues were detected.

protozoa = assay: Mouse pneumonia model, protozoal pneumonia; type: in vivo, BALB/C mice; set-up: unit not given here; conditions: nasal drip, average values + standard deviation
From the text: (§1) A mouse pneumonia model was successfully established by using a nasal drip method. BALB/C mice with a body weight of 18-24 g were selected, and then anesthetized with ether on day 0, day 1 and day 2, respectively, prepared Streptococcus pneumoniae bacteria solution, adenovirus concentrated solution, Mycoplasma pneumoniae, Chlamydia pneumoniae, protozoa and pneumonia fungi were slowly dropped into the nasal cavity of the mice, so that the bacteria solutions entered the trachea and bronchi, and the bacteria solutions were prevented from flowing into the esophagus during the operation to avoid inactivation of the bacteria solutions, so that the mouse pneumonia model was established. After the model was successfully established, the polypeptide according to the present disclosure was administered, as shown in FIG. 9 and Table 7. […] The experimental results are represented on the basis of average values+standard deviation.

[2] = system: multiple pulmonary infections; assay: Mouse pneumonia model, pneumonia caused by pulmonary infections; type: in vivo, BALB/C mice; set-up: unit not given here; conditions: nasal drip, average values + standard deviation
From the text: as §1

adenovirus = assay: Mouse pneumonia model, viral pneumonia; type: in vivo, BALB/C mice; set-up: unit not given here; conditions: nasal drip, average values + standard deviation
From the text: as §1

Mycoplasma pneumoniae = assay: Mouse pneumonia model, mycoplasma pneumonia; type: in vivo, BALB/C mice; set-up: unit not given here; conditions: nasal drip, average values + standard deviation
From the text: as §1

Streptococcus pneumoniae = assay: Mouse pneumonia model, bacterial pneumonia; type: in vivo, BALB/C mice; set-up: unit not given here; conditions: nasal drip, average values + standard deviation
From the text: as §1

pneumonia fungi = assay: Mouse pneumonia model, fungal pneumonia; type: in vivo, BALB/C mice; set-up: unit not given here; conditions: nasal drip, average values + standard deviation
From the text: as §1

Chlamydia pneumoniae = assay: Mouse pneumonia model, chlamydia pneumonia; type: in vivo, BALB/C mice; set-up: unit not given here; conditions: nasal drip, average values + standard deviation
From the text: as §1

[3] = system: SD rats with CCl4-induced hepatic fibrosis; assay: CCl4-induced hepatic fibrosis animal model; type: in vivo; conditions: CCl4 8 weeks, polypeptides 6 mg/kg s.c. once a day, colchicine intragastric 5 times/week
Description: Source and strain: SPF level, SD rats, provided by Shanghai Xipuer-Bikai laboratory Animal Co., Ltd. (laboratory animal license: SCXK (hu) 2013-0016)
There were 10 rats in each group. Modeling was performed on the rats. Each group other than the blank group was injected with 40% CCl4 intraperitoneally twice a week, the first injection was performed at 3 mL/kg, and then administration was performed at 2 mL/kg. Administration was performed for 8 weeks, and a total of 16 injections were provided to induce hepatic fibrosis. After the intraperitoneal injection of CCl4 for the fourth time, polypeptide therapy was started on the next day, and administration was performed by subcutaneous injection once a day until the end of induction. After the intraperitoneal injection of CCl4 for the fourth time, colchicine was administrated on the next day at 200 μg/kg, 5 times a week, and intragastric administration therapy was implemented. After induction for 8 weeks, the administration was stopped. On the second day, the SD rats were dissected, blood was taken, and the liver tissue was taken and stored in a refrigerator at −80° C. for later use. The expressions of AST and ALT in serum and HYP in the rat liver tissue were detected.

[4] = system: SD rats with renal fibrosis; assay: Renal fibrosis model (ureter ligation); type: in vivo; conditions: 6 mg/kg s.c. twice a day, 14 days
Description: Clean grade male SD rats, purchased from Nanjing Qinglong Mountain Animal Farm, and weighed 180-200 g at the time of purchase, 190-210 g at the beginning of modeling, and 180-200 g at the beginning of administration.
A renal fibrosis animal model was established. SD rats were anesthetized with 4% chloral hydrate, injected with 1 mL/100 g intraperitoneally, fixed to an operation board, and sterilized in an operation area for later use. […] Muscular layers and abdominal walls were sewed layer by layer, the suture was disinfected with alcohol. After SD rats woke up, the rats were put into a cage for feeding. In the blank group, ureter was not ligated, and other steps were the same.
Then, the animals fell into a blank group, a model group, and polypeptide administration groups, with 10 animals in each group, and the administration was started on the second day after the operation, and was performed for 14 days. After administration for 14 days, blood was taken and supernatant was taken to detect the content of TGF-β1 in serum.

[5] = system: mice with myocardial fibrosis; assay: Isoprenaline-induced myocardial fibrosis model; type: in vivo; conditions: BALB/c mice, isoprenaline 5 mg/kg 7 days; 12 mg/kg s.c. twice a day
Description: 1. Experimental Mice: 10-Week-Old Male BALB/c Mice (with an Average Weight of 20 g).
In the model group, the experimental mice were injected with isoprenaline (ISO) (5 mg/kg) subcutaneously on the back of the mice every day for 7 consecutive days, and the mice were injected with normal saline subcutaneously (200 μL/mouse) every day. In the blank group, normal saline was injected subcutaneously (200 μL/mouse) every day. While a model was made, polypeptide drugs were administrated for treatment by subcutaneous injection. After the 8th day, blood was taken and was centrifuged, the supernatant was taken, and the content of TGF-β1 in serum was detected.

mice with skin fibrosis = assay: Bleomycin-induced skin fibrosis model; type: in vivo, C57/BL black mice; conditions: C57/BL mice, bleomycin s.c. 28 days; 10 mg/kg s.c. twice a day
Description: Male C57/BL black mice aged 6-8 weeks, purchased from Nanjing Qinglong Mountain Animal Farm. Bleomycin (10 μg/mL) was injected subcutaneously every day for 28 days to form skin fibrosis. During the modeling period, the administration groups were given polypeptide drugs twice a day for treatment. After modeling, the mice were killed on the next day, and the skin tissue of the mouse back was taken to detect the content of HYP in the skin tissue. [table]

[6] = bleomycin-induced pulmonary fibrosis

Molecule	Survival rate (%) [1] [%]	content of HYP in lung tissues, difference from model group [1, 6]	content of TGF-β1 in serum, difference from model group [1, 6]	Inhibitory effect on pulmonary infections: Protozoal pneumonia (protozoa)	Inhibitory effect on pulmonary infections: Pneumonia caused by pulmonary infections [2]	Inhibitory effect on pulmonary infections: Viral pneumonia (adenovirus)	Inhibitory effect on pulmonary infections: Mycoplasma pneumonia (Mycoplasma pneumoniae)	Inhibitory effect on pulmonary infections: Bacterial pneumonia (Streptococcus pneumoniae)	Inhibitory effect on pulmonary infections: Fungal pneumonia (pneumonia fungi)	Inhibitory effect on pulmonary infections: Chlamydia pneumonia (Chlamydia pneumoniae)	content of ALT in serum, difference from model group [3]	content of AST in serum, difference from model group [3]	content of HYP in the liver tissue, difference from model group [3]	content of TGF-β1 in serum, difference from model group [4]	content of TGF-β1 in serum, difference from model group [5]	content of HYP in the skin tissue, difference from model group (mice with skin fibrosis)	reduction of HYP in lung tissues compared with the positive drug ([1]; bleomycin-induced pulmonary fibrosis, comparison with Nintedanib)
COC(=O)c1ccc2c(c1)NC(=O)/C2=C(\Nc1ccc(N(C)C(=O)CN2CCN(C)CC2)cc1)c1ccccc1 [Nintedanib, reference compound]	85.7	highly significantly different from the model group (** P<0.01)	highly significantly different from the model group (*** P<0.001)	–	–	–	–	–	–	–	–	–	–	–	–	–	–
Penicillin [reference compound]	–	–	–	40.34 ± 3.02	39.56 ± 4.35	48.07 ± 2.07	39.78 ± 5.23	37.05 ± 4.35	36.87 ± 2.82	32.57 ± 3.13	–	–	–	–	–	–	–
COc1cc2c(c(OC)c1OC)-c1ccc(OC)c(=O)cc1[C@@H](NC(C)=O)CC2 [Colchicine, reference compound]	–	–	–	–	–	–	–	–	–	–	significantly lower than those in the model group	highly significantly different from the model group (** P<0.01)	highly significantly different from the model group (*** P<0.001)	–	–	–	–
PRCYCGEGGGGIVRRADRAAVPGGGGRGD (cysteine pairing not given here) [Polypeptide IV]	92.9	highly significantly different from the model group (** P<0.01)	highly significantly different from the model group (** P<0.01)	62.16 ± 3.28	50.99 ± 6.88	70.33 ± 9.27	41.20 ± 7.30	43.69 ± 8.66	53.22 ± 4.14	45.86 ± 5.22	–	highly significantly different from the model group (*** P<0.001)	highly significantly different from the model group (*** P<0.001)	highly significantly different from the model group (*** P<0.001)	highly significantly different from the model group (*P<0.05)	highly significantly different from the model group (*P<0.05)	–
PRCWCGEGGGGIVRRADRAAVPGGGGRGD (cysteine pairing not given here) [Polypeptide III]	85.7	significantly different from the model group (*P<0.05)	highly significantly different from the model group (*** P<0.001)	64.29 ± 8.70	56.81 ± 3.13	67.49 ± 9.94	43.93 ± 5.53	47.29 ± 8.76	62.88 ± 5.94	56.40 ± 5.49	–	highly significantly different from the model group (*** P<0.001)	highly significantly different from the model group (*** P<0.001)	highly significantly different from the model group (** P<0.01)	highly significantly different from the model group (** P<0.01)	highly significantly different from the model group (*P<0.05)	–
PRCWRGEGGGGIAVVRRADRAPGGGGRGD [Polypeptide I]	85.7	highly significantly different from the model group (*** P<0.001)	highly significantly different from the model group (*** P<0.001)	48.16 ± 5.46	47.52 ± 7.88	50.00 ± 6.84	36.48 ± 5.55	34.83 ± 7.95	47.54 ± 9.68	37.18 ± 7.46	–	highly significantly different from the model group (*** P<0.001)	highly significantly different from the model group (*** P<0.001)	highly significantly different from the model group (*** P<0.001)	highly significantly different from the model group (** P<0.01)	highly significantly different from the model group (** P<0.01)	better effects than the positive drug

Source: US12398196B2, “Fused polypeptide with multifunctional activities and use thereof” (NANJING ANJI BIOLOGICAL TECHNOLOGY CO., LTD., priority 2019, dated 2025)
